Data on 2 compounds can be found in patent US12698507B2, “Methods and compositions for conferring and/or enhancing herbicide tolerance using protoporphyrinogen IX oxidase of various cyanobacteria or variant thereof” (FarmHannong Co., Ltd., priority 2019, dated 2026).

The target in assay [1] is Thermosynechococcus vulcanus NIES-2134 protoporphyrinogen IX oxidase CyPPO18 (SEQ ID NO: 3) variant A167C (MBP fusion) (Thermosynechococcus vestitus, UniProt Q8DLV2, A167C). The experiment in a line: PPO enzyme inhibition assay (IC50 for herbicides), CyPPO18 A167C fused to MBP. The conditions noted are these: 50 μM protoporphyrinogen IX, pH 7.5, room temperature, 30 min. In kind it is biochemical.

For assay [2], the target named is Thermosynechococcus elongatus PKUAC-SCTE542 protoporphyrinogen IX oxidase CyPPO19 (SEQ ID NO: 1) variant A167C (MBP fusion) (Thermosynechococcus sichuanensis, UniProt A0A7D6JSC1, A167C). Description: biochemical.
The target of assay [3] is Thermosynechococcus elongatus PKUAC-SCTE542 protoporphyrinogen IX oxidase CyPPO19 (SEQ ID NO: 1) variant R89A (MBP fusion) (Thermosynechococcus sichuanensis, UniProt A0A7D6JSC1, R89A). The experiment in a line: biochemical.
In assay [4] the target is Thermosynechococcus elongatus PKUAC-SCTE542 protoporphyrinogen IX oxidase CyPPO19 (SEQ ID NO: 1) variant V305L (MBP fusion) (Thermosynechococcus sichuanensis, UniProt A0A7D6JSC1, V305L). The experiment in a line: PPO enzyme inhibition assay (IC50 for herbicides), CyPPO19 V305L fused to MBP. In kind it is biochemical.
Assay [5] has as its system PPO-deficient BT3 E. coli (ΔPPO) transformed with CyPPO19 variant V165C+F360V (Thermosynechococcus elongatus PKUAC-SCTE542, SEQ ID NO: 1). Description: Herbicide tolerance test in E. coli, CyPPO19 V165C+F360V. It is filed as cell-based. As to conditions: LB agar, 0 to 2,000 μM herbicide, 37° C., 16-20 hours. From the text: (§1) To enhance the PPO-inhibiting herbicide resistance of CyPPO19 and CyPPO18, PPO variant genes of the above example 2 were constructed. They were transformed to BT3 (ΔPPO) strain which is deficient of PPO activity and cultured in LB media with PPO-inhibiting herbicide, thereby examining whether growth of transformed BT3 was not inhibited.
(§2) BT3 competent cells were transformed with the pET303-CyPPO19 (wild type), pET303-CyPPO18 (wild type) plasmids, and those with a mutation(s) constructed (refer to example 2) via heat shock method, and were cultured in LB agar media containing ampicillin.
(§3) Single colony transformed with each CyPPO gene was cultured in 3 mL of LB broth (LPSS) containing ampicillin for more than 12 hours, and then was subcultured in LB broth until absorbance (OD600) reached 0.5 to 1. Then, it was diluted with LB broth to OD600=0.5. Again, the diluted solution was serially diluted 4 times by a factor of one tenth. […]
(§4) Then, 10 μL of each diluted solution of E. coli was dropped on the plate and cultured at 37° C. under dark for 16-20 hours. PPO-inhibiting herbicide resistance was evaluated with the extent of E. coli growth containing each gene was observed.
(§5) The extent of herbicide resistance was evaluated by the relative growth of variants to that of wild type, and listed in Tables 9 and 10 and FIGS. 3 to 32. […]

For assay [6], the system named is PPO-deficient BT3 E. coli (ΔPPO) transformed with CyPPO18 variant V165C+A167L+F360I (Thermosynechococcus vulcanus NIES-2134, SEQ ID NO: 3). The experiment in a line: Herbicide tolerance test in E. coli, CyPPO18 V165C+A167L+F360I. It is filed as cell-based. Also on record: key to the marks not given beside the values. The conditions noted are these: LB agar, 0 to 2,000 μM herbicide, 37° C., 16-20 hours.
Text: as §1, §2, §3, §4, §5

For assay [7], the target named is Thermosynechococcus vulcanus NIES-2134 protoporphyrinogen IX oxidase CyPPO18 (SEQ ID NO: 3) variant V305M (MBP fusion) (Thermosynechococcus vestitus, UniProt Q8DLV2, V305M). Description: PPO enzyme inhibition assay (IC50 for herbicides), CyPPO18 V305M fused to MBP. It is filed as biochemical. As to conditions: 50 μM protoporphyrinogen IX, pH 7.5, room temperature, 30 min.

Assay [8] concerns PPO-deficient BT3 E. coli (ΔPPO) transformed with CyPPO19 variant R89A+F360I (Thermosynechococcus elongatus PKUAC-SCTE542, SEQ ID NO: 1). The experiment in a line: Herbicide tolerance test in E. coli, CyPPO19 R89A+F360I. It is filed as cell-based. As to conditions: LB agar, 0 to 2,000 μM herbicide, 37° C., 16-20 hours.
Text: as §1, §2, §3, §4, §5

In assay [9] the target is Thermosynechococcus vulcanus NIES-2134 protoporphyrinogen IX oxidase CyPPO18 (SEQ ID NO: 3) variant L327T (MBP fusion) (Thermosynechococcus vestitus, UniProt Q8DLV2, L327T). The experiment in a line: PPO enzyme inhibition assay (IC50 for herbicides), CyPPO18 L327T fused to MBP. In kind it is biochemical. The conditions noted are these: 50 μM protoporphyrinogen IX, pH 7.5, room temperature, 30 min.

For assay [10], the target named is Thermosynechococcus elongatus PKUAC-SCTE542 protoporphyrinogen IX oxidase CyPPO19 (SEQ ID NO: 1) variant V165S (MBP fusion) (Thermosynechococcus sichuanensis, UniProt A0A7D6JSC1, V165S). The experiment in a line: biochemical. The conditions noted are these: 50 μM protoporphyrinogen IX, pH 7.5, room temperature, 30 min, 10,000 means equivalent to or higher.
Assay [11] relates to PPO-deficient BT3 E. coli (ΔPPO) transformed with CyPPO19 variant R89A+F360V (Thermosynechococcus elongatus PKUAC-SCTE542, SEQ ID NO: 1). The experiment in a line: Herbicide tolerance test in E. coli, CyPPO19 R89A+F360V. It is filed as cell-based. As to conditions: LB agar, 0 to 2,000 μM herbicide, 37° C., 16-20 hours.
Text: as §1, §2, §3, §4, §5

For assay [12], the target named is Thermosynechococcus elongatus PKUAC-SCTE542 protoporphyrinogen IX oxidase CyPPO19 (SEQ ID NO: 1) variant A167I (MBP fusion) (Thermosynechococcus sichuanensis, UniProt A0A7D6JSC1, A167I). The experiment in a line: biochemical. The conditions noted are these: 50 μM protoporphyrinogen IX, pH 7.5, room temperature, 30 min, 10,000 means equivalent to or higher.
The subject of assay [13] is PPO-deficient BT3 E. coli (ΔPPO) transformed with CyPPO18 variant R89A+V165C+F360I (Thermosynechococcus vulcanus NIES-2134, SEQ ID NO: 3). The experiment in a line: Herbicide tolerance test in E. coli, CyPPO18 R89A+V165C+F360I. In kind it is cell-based. Also on record: key to the marks not given beside the values. The conditions noted are these: LB agar, 0 to 2,000 μM herbicide, 37° C., 16-20 hours.
Text: as §1, §2, §3, §4, §5

In assay [14] the target is Thermosynechococcus elongatus PKUAC-SCTE542 protoporphyrinogen IX oxidase CyPPO19 (SEQ ID NO: 1) variant V305M (MBP fusion) (Thermosynechococcus sichuanensis, UniProt A0A7D6JSC1, V305M). Description: PPO enzyme inhibition assay (IC50 for herbicides), CyPPO19 V305M fused to MBP. It is filed as biochemical.

Each structure is given as a SMILES string. pIC50: −log10 of the molar value. Where two headings read alike, the source gives them in different places.

Thermosynechococcus vulcanus NIES-2134 protoporphyrinogen IX oxidase CyPPO18 (SEQ ID NO: 3) variant L327T (MBP fusion), sequence (Q8DLV2 entry or part of it L327T): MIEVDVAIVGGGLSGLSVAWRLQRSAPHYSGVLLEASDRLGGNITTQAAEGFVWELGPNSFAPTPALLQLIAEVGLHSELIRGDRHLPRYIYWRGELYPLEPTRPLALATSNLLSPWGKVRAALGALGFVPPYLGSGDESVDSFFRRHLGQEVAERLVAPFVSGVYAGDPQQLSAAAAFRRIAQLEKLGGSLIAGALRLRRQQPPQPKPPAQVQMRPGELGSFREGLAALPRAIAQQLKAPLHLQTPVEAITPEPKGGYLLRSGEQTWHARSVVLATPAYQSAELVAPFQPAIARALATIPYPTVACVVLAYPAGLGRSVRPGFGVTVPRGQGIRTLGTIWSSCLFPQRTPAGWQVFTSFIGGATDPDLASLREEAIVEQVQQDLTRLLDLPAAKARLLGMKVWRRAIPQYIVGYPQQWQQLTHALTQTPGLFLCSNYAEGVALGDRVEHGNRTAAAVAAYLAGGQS
Thermosynechococcus elongatus PKUAC-SCTE542 protoporphyrinogen IX oxidase CyPPO19 (SEQ ID NO: 1) variant V305L (MBP fusion), sequence (A0A7D6JSC1 entry or part of it V305L): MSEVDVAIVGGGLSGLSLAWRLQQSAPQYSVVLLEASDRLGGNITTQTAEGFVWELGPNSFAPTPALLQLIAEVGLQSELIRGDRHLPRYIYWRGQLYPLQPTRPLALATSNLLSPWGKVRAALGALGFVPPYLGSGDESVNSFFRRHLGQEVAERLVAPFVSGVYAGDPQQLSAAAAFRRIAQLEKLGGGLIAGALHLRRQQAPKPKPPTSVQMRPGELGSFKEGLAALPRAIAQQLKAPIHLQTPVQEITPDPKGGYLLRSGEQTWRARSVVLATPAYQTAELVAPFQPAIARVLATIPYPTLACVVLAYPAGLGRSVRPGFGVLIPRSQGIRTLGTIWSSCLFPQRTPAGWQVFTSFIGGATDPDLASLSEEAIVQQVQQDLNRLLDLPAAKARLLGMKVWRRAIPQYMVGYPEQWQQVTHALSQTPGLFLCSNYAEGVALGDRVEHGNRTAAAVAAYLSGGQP
Thermosynechococcus vulcanus NIES-2134 protoporphyrinogen IX oxidase CyPPO18 (SEQ ID NO: 3) variant A167C (MBP fusion), sequence (Q8DLV2 entry or part of it A167C): as the sequence (Q8DLV2 entry or part of it L327T) above, with A167C, T327L counted along it
Thermosynechococcus elongatus PKUAC-SCTE542 protoporphyrinogen IX oxidase CyPPO19 (SEQ ID NO: 1) variant V305M (MBP fusion), sequence (A0A7D6JSC1 entry or part of it V305M): as the sequence (A0A7D6JSC1 entry or part of it V305L) above, with L305M counted along it
Thermosynechococcus elongatus PKUAC-SCTE542 protoporphyrinogen IX oxidase CyPPO19 (SEQ ID NO: 1) variant R89A (MBP fusion), sequence (A0A7D6JSC1 entry or part of it R89A): as the sequence (A0A7D6JSC1 entry or part of it V305L) above, with R89A, L305V counted along it
Thermosynechococcus elongatus PKUAC-SCTE542 protoporphyrinogen IX oxidase CyPPO19 (SEQ ID NO: 1) variant A167I (MBP fusion), sequence (A0A7D6JSC1 entry or part of it A167I): as the sequence (A0A7D6JSC1 entry or part of it V305L) above, with A167I, L305V counted along it
Thermosynechococcus vulcanus NIES-2134 protoporphyrinogen IX oxidase CyPPO18 (SEQ ID NO: 3) variant V305M (MBP fusion), sequence (Q8DLV2 entry or part of it V305M): as the sequence (Q8DLV2 entry or part of it L327T) above, with V305M, T327L counted along it
Thermosynechococcus elongatus PKUAC-SCTE542 protoporphyrinogen IX oxidase CyPPO19 (SEQ ID NO: 1) variant V165S (MBP fusion), sequence (A0A7D6JSC1 entry or part of it V165S): as the sequence (A0A7D6JSC1 entry or part of it V305L) above, with V165S, L305V counted along it
Thermosynechococcus elongatus PKUAC-SCTE542 protoporphyrinogen IX oxidase CyPPO19 (SEQ ID NO: 1) variant A167C (MBP fusion), sequence (A0A7D6JSC1 entry or part of it A167C): as the sequence (A0A7D6JSC1 entry or part of it V305L) above, with A167C, L305V counted along it

Broadly, the pIC50 is the IC50 on a negative log10 scale, so that one unit is a factor of ten. Turning to `Cc1nn(-c2cc(CC(Cl)C(=O)O)c(Cl)cc2F)c(=O)n1C(F)F` (stereo not shown) [Carfentrazone], the pIC50 in assay [1] is 5.73; in [2] (CyPPO19 A167C, 50 μM protoporphyrinogen IX, pH 7.5, room temperature, 30 min), 5.45; in assay [3] (CyPPO19 R89A, 50 μM protoporphyrinogen IX, pH 7.5, room temperature, 30 min), 6.07; in assay [4] (CyPPO19 V305L, 50 μM protoporphyrinogen IX, pH 7.5, room temperature, 30 min) it was 5.88; in assay [7], 5.79; in [9], 6.14. In addition, the pIC50 in [10] is at most 5.00; in [12], at most 5.00; in [14] (CyPPO19 V305M, 50 μM protoporphyrinogen IX, pH 7.5, room temperature, 30 min), 6.04. The “tolerance level (relative growth of variant to wild type)” value is recorded as “+” in assay [5]; “++” in [6]; “+” in assay [8]; “+” in assay [11]; “++” in [13].

`CCOc1cc(Oc2ccc(C(F)(F)F)cc2Cl)ccc1[N+](=O)[O-]` [Oxyfluorfen]: the pIC50 was 6.24 in assay [1]; 6.19 in assay [2]; 6.22 in assay [3]; 6.10 in assay [4]; 6.45 in assay [7]; 5.44 in [9]. The negative logarithm of the IC50 (pIC50) in [10] (read-out: IC50) is 5.78; in assay [12] (read-out: IC50) it was 5.88; in assay [14], 6.14. Further, the “tolerance level (relative growth of variant to wild type)” value is on record as “++” in assay [5]; “++” in assay [6]; “+” in assay [8]; “+” in [11]; “++” in assay [13].
